We go through three molecules from ChEMBL document CHEMBL1131422, “N-(2-Benzoylphenyl)-L-tyrosine PPARgamma agonists. 1. Discovery of a novel series of potent antihyperglycemic and antihyperlipidemic agents” (J Med Chem, 1998).

In general, EC50 refers to the concentration giving half of the maximal effect. The low end stands for a more potent agent, the high end for a less potent agent. As a reminder, the pKi is the negative decadic logarithm of the Ki, by convention in mol/L. The term Ki denotes the dissociation constant of the complex between target and ligand, obtained from inhibition or displacement. A lower Ki goes with higher affinity.

The source made the active and inactive calls. The calls are words filed in the database; no cut-off is given here.

The species entered for experiment [1] is Mus musculus. Kind of experiment: Compound was tested for Antihyperlipidemic activity, activity is expressed as percent reduction of NEFAs. It is filed as functional.
The species named for experiment [2] is Mus musculus. As to the kind of experiment: Compound was tested for Antihyperlipidemic activity, activity is expressed as percent reduction of Triglycerides. It is filed as functional.
The test system of experiment [3] is Mus musculus. Kind of experiment: Compound was tested in vivo for Antihyperglycemic activity in mice, activity is expressed as percent reduction of plasma glucose. It counts as functional.
Experiment [4] has as its target T1, Peroxisome proliferator-activated receptor alpha (Homo sapiens, UniProt Q07869).
T1 sequence (Q07869 whole entry): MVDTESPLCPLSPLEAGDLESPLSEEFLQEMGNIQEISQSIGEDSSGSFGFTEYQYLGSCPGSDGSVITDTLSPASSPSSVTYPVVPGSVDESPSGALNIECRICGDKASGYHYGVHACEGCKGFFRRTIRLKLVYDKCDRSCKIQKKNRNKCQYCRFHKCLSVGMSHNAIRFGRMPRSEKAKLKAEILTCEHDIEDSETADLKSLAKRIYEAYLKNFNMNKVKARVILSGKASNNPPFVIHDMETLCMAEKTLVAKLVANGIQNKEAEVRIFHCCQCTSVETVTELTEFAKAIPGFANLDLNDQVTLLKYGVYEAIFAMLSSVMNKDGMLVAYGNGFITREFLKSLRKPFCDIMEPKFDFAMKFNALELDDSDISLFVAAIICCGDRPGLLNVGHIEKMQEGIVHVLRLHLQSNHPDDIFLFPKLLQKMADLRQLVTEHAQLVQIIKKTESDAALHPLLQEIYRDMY
Kind of experiment: Compound was tested functionally in vitro for inducing 50% of the maximum alkaline phosphatase activity (Transactivation) against human Peroxisome proliferator activated receptor alpha using transfection assay in CV-1 cells. It counts as functional, cell-based.

Experiment [5] concerns the target T2, Peroxisome proliferator-activated receptor delta (Mus musculus) (UniProt P35396).
T2 sequence (whole entry): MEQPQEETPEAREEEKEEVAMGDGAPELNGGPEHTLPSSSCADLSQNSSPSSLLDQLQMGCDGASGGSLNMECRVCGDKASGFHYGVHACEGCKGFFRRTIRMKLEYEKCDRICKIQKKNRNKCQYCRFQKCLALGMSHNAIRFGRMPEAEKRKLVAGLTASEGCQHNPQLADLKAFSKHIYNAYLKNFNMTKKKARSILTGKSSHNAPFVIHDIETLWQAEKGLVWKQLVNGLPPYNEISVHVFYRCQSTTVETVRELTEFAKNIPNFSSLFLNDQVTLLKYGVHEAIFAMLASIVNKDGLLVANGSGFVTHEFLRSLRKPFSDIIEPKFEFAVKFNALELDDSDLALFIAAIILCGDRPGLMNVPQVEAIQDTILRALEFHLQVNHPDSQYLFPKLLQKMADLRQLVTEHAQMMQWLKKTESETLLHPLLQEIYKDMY
As to the kind of experiment: Compound was tested functionally in vitro for inducing 50% of the maximum alkaline phosphatase activity (Transactivation) against murine Peroxisome proliferator activated receptor delta using transfection assay in CV-1 cells; IA = Inactive at 10e-4 M. It counts as functional, cell-based.

Experiment [6] addresses T3, Peroxisome proliferator-activated receptor alpha (Homo sapiens) (UniProt Q07869).
T3 sequence (whole entry): T1 sequence (Q07869 whole entry)
As to the kind of experiment: The compound was tested in vitro for inhibiting the 50% binding of Peroxisome proliferator activated receptor alpha.

For experiment [7], the target named is T4, Peroxisome proliferator-activated receptor alpha (Mus musculus) (UniProt P23204).
T4 sequence (whole entry): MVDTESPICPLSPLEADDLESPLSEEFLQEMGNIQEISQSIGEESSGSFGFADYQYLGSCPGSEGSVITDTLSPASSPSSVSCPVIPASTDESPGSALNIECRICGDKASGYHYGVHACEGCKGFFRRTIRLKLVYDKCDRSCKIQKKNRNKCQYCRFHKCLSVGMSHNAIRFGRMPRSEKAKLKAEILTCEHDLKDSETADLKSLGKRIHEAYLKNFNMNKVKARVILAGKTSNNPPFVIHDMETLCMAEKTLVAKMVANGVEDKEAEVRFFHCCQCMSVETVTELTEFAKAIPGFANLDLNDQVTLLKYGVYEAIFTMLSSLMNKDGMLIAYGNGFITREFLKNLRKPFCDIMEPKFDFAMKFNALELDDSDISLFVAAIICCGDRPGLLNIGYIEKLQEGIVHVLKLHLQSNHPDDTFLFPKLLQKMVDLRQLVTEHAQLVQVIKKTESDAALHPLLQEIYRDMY
Kind of experiment: Compound was tested functionally in vitro for inducing 50% of the maximum alkaline phosphatase activity (Transactivation) against murine Peroxisome proliferator activated receptor alpha using transfection assay in CV-1 cells; IA = Inactive at 10e-4 M. It counts as functional, cell-based.

For experiment [8], the target named is T5, Peroxisome proliferator-activated receptor gamma (Mus musculus, UniProt P37238).
T5 sequence (P37238 whole entry): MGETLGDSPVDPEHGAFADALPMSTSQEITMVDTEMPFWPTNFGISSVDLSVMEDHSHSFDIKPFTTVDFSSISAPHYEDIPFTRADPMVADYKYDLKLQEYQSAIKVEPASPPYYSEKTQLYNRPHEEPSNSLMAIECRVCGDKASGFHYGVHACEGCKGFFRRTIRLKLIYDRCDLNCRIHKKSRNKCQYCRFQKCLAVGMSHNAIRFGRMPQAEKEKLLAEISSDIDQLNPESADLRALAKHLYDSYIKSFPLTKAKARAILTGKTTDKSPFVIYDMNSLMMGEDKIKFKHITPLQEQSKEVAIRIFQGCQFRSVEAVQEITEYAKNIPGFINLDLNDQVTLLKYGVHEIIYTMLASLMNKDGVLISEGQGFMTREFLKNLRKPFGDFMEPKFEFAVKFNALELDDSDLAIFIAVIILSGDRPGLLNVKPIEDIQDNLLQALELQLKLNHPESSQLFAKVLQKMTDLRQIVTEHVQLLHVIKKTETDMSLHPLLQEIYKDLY
As to the kind of experiment: Compound was tested functionally in vitro for inducing 50% of the maximum alkaline phosphatase activity (Transactivation) against murine Peroxisome proliferator activated receptor gamma using transfection assay in CV-1 cells. It counts as functional, cell-based.

Experiment [9] concerns the target T6, Peroxisome proliferator-activated receptor gamma (Homo sapiens, UniProt P37231).
T6 sequence (P37231 whole entry): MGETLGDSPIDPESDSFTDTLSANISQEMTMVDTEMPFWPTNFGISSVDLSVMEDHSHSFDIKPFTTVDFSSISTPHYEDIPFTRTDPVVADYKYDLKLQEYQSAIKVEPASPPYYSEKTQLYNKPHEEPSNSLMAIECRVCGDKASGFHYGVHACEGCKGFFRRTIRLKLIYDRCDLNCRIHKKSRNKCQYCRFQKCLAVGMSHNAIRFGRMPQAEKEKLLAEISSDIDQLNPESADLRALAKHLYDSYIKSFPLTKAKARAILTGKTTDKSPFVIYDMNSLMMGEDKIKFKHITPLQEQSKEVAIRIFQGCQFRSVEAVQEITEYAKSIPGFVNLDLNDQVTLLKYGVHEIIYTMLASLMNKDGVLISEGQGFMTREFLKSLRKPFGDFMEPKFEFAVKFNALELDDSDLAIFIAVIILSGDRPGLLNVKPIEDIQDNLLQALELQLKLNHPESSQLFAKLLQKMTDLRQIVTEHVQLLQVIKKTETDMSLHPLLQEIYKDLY
Description: (§1) Activation of peroxisome proliferator activated receptor gamma measured by induction of 50% of maximum alkaline phosphatase activity, transfection assay in CV-1 cells

Experiment [10] has as its target T6, Peroxisome proliferator-activated receptor gamma. The source holds these as a separate data set.
Description: In vitro binding to peroxisome proliferator activated receptor gamma (PPAR gamma) using [3H]-BRL 49653 as radioligand in scintillation proximity assay (SPA)
Experiment [11] has as its target T7, Peroxisome proliferator-activated receptor delta (Homo sapiens) (UniProt Q03181).
T7 sequence (whole entry): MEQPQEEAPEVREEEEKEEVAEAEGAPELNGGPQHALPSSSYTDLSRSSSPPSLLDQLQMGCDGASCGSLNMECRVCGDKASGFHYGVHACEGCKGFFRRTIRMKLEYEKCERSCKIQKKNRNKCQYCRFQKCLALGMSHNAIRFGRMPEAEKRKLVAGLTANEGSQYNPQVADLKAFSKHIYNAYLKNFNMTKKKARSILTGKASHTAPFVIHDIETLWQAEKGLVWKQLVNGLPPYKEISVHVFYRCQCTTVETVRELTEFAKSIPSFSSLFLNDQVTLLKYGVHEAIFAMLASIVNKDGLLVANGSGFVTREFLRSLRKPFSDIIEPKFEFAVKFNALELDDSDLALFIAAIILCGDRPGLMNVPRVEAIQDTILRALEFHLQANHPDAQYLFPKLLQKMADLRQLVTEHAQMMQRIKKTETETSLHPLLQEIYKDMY
As to conditions: CV-1; 10e-4 M.
Description: Compound was tested functionally in vitro for inducing 50% of the maximum alkaline phosphatase activity (Transactivation) against human Peroxisome proliferator activated receptor delta using transfection assay in CV-1 cells; IA = Inactive at 10e-4 M

Experiment [12] concerns the target T6, Peroxisome proliferator-activated receptor gamma. As to conditions: cv-1.
Description: as §1
The target of experiment [13] is T8, Peroxisome proliferator-activated receptor gamma (Homo sapiens) (UniProt P37231).
T8 sequence (whole entry): T6 sequence (P37231 whole entry)
Description: Tested for its ability to bind to Peroxisome proliferator activated receptor gamma using [3H]-BRL 49653 as radioligand in scintillation proximity assay (SPA)

Experiment [14] is filed under the species Mus musculus. Kind of experiment: Compound was tested for Antihyperlipidemic activity, activity is expressed as percent increase of body weight.
Experiment [15] concerns Rattus norvegicus. Kind of experiment: Compound was tested in vivo for Antihyperglycemic activity in Zucker Diabetic fatty rats, activity is expressed as percent reduction of plasma glucose. It counts as functional.
The species entered for experiment [16] is Rattus norvegicus. As to the kind of experiment: Compound was tested for Antihyperlipidemic activity in Zucker Diabetic fatty rats, activity is expressed as percent reduction of NEFAs. It counts as functional.
Experiment [17] is filed under the species Rattus norvegicus. Kind of experiment: Compound was tested for Antihyperlipidemic activity in Zucker Diabetic fatty rats, activity is expressed as percent reduction of Triglycerides. It counts as functional.
For experiment [18], the system named is Rattus norvegicus. As to the kind of experiment: Compound was tested in vivo for Antihyperglycemic activity in Zucker Diabetic fatty rats, activity is expressed as percent reduction of HbA1C. It is filed as functional.
In experiment [19] the target is T3, Peroxisome proliferator-activated receptor alpha (Homo sapiens). Conditions: CV-1; 10e-4 M.
The species named for experiment [20] is Rattus norvegicus. Kind of experiment: The compound was tested for Antihyperlipidemic activity in Zucker Diabetic fatty rats, activity is expressed as percent reduction of NEFAs. It counts as functional.
Experiment [21] is filed under the species Rattus norvegicus. As to the kind of experiment: The compound was tested for Antihyperlipidemic activity in Zucker Diabetic fatty rats, activity is expressed as percent reduction of Triglycerides. It counts as functional.
The subject of experiment [22] is Rattus norvegicus. Kind of experiment: The compound was tested in vivo for Antihyperglycemic activity in Zucker Diabetic fatty rats, activity is expressed as percent reduction of HbA1C. It counts as functional.
Experiment [23] relates to Rattus norvegicus. Kind of experiment: The compound was tested in vivo for Antihyperglycemic activity in Zucker Diabetic fatty rats, activity is expressed as percent reduction of plasma glucose. It counts as functional.

For the molecule `CN(CCOc1ccc(C[C@H](Nc2ccccc2C(=O)c2ccccc2)C(=O)O)cc1)c1nc2ccccc2o1`, the Reduction came to 38% in the experiment filed under Mus musculus [1], 36% in the experiment listed under Mus musculus [2] and 41% in the experiment with Mus musculus [3]. Besides, the EC50 in experiment [4] was 6460 nM; in [8], 4.68 nM; in experiment [9], 2.63 nM. In addition, the “Log EC50” value in [5], in experiment [7] and in [11] was “inactive” throughout. In experiment [6], the negative-log Ki (pKi) stood at 5.92. For the same molecule, the affinity in experiment [10] corresponds to a Ki of 1.48 nM. In addition, the “Log EC50” value in experiment [12] is listed as -8.58. Also, the Log Ki in [13] came to 8.83 µM. The “body weight increase %” value in the experiment filed under Mus musculus [14] worked out at 9%.

As for `CN(CCOc1ccc(C[C@H](Nc2ccccc2C(=O)c2ccccc2)C(=O)O)cc1)c1ccccn1` (stereo in doubt; 18), the Reduction in the experiment filed under Mus musculus [1] turned out to be 46%; in the experiment filed under Mus musculus [2], 61%; with Mus musculus [3], 58%; with Rattus norvegicus [15] it was 68%; in the experiment listed under Rattus norvegicus [16] it was 73%; in the experiment filed under Rattus norvegicus [17], 87%. For the same molecule, the Reduction in the experiment on Rattus norvegicus [18] is 37%. Moreover, the “Log EC50” value in experiment [5], in experiment [7], in experiment [11] and in experiment [19] was “inactive” throughout. Besides, the EC50 in [8] is 13.2 nM. Besides, in the experiment listed under Mus musculus [14], the “body weight increase %” value was found to be 6%.

As for `Cc1c(C)c2c(c(C)c1O)CCC(C)(COc1ccc(CC3SC(=O)NC3=O)cc1)O2` (stereo unspecified) [TROGLITAZONE], the Reduction in the experiment listed under Rattus norvegicus [20] is reported as 81%; in the experiment listed under Rattus norvegicus [21], 87%; in the experiment with Rattus norvegicus [22], 29%; in the experiment with Rattus norvegicus [23], 61%.
